In patent publication US20230257377A1, “2-AMINOQUINAZOLINONE DERIVATIVES AS METHIONINE ADENOSYLTRANSFERASE 2A INHIBITORS” (IDEAYA BIOSCIENCES, INC., priority 2020, published 2023):

Legend:
[1] = molecular target: T1, Human MAT2A (Homo sapiens, UniProt P31153); test: Phosphate Sensor Fluorescence Assay (Biologic Example A); type: biochemical; conditions: MAT2A inhibition, procedure of Biological Example A; 500 uM L-methionine, 500 uM ATP, 0.1% BGG
T1 construct: Human MAT2A: Cepter, amino acids 1-395 Clone ID 334, lot 00023-148; purchased Cepter clone ID 334, lot 00023-148
T1 sequence (P31153 whole entry, the tested form may be a part): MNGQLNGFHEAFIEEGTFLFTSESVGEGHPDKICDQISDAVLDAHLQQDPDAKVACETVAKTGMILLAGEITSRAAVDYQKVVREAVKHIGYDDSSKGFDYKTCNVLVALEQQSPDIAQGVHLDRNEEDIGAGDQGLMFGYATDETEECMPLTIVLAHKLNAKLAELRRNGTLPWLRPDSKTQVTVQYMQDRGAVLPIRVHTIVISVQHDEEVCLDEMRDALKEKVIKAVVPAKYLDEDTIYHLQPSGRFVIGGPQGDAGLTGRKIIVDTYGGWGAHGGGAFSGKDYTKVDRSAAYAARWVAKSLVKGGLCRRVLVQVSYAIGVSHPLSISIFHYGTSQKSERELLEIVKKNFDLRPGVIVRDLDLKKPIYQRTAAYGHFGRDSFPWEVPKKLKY
Method: (§1) The ability of the compound of present disclosure to inhibit MAT2A enzyme was determined using a Phosphate Sensor Fluorescence Assay described below.
(§2) MAT2A enzyme is incubated with a test compound in DMSO or DMSO and its substrates (L-methionine and ATP) in a microtiter plate. The enzymatic reaction is stopped by the addition of Working Phosphate Sensor Mixture. The plate is analyzed for fluorescence at 450 nm. The high control (DMSO with enzyme and its substrates) gives high fluorescence which represents no inhibition of enzymatic activity while the low control (DMSO with MAT2A substrates and no enzyme) gives low fluorescence which represents full inhibition of enzymatic activity.
Human MAT2A: Cepter, amino acids 1-395
Assay Buffer: 50 mM Tris, pH 7.5/50 mM KCl/10 mM MgCl2/0.01% Brij-35/1 mM DTT/0.1% BGG/40 nM PNP/6 uM 7-MEG
MAT2A: 10 nM for Cepter clone ID 329, lot 00023-123 before the addition of Working Phosphate Sensor Mixture • 5 nM for Cepter clone ID 334, lot 00023-148 before the addition of Working Phosphate Sensor Mixture
(§3) L-methionine: 500 uM before the addition of Working Phosphate Sensor Mixture
(§4) ATP: 500 uM before the addition of Working Phosphate Sensor Mixture
(§5) For the assay, a mixture of 1 mM L-methionine/1 mM ATP (2× final pre-stopped concentration) in assay buffer; MAT2A (2× final pre-stopped concentration) in Assay Buffer and Working Phosphate Sensor Mixture (1.5 uM Phosphate Sensor/30 mM EDTA in Assay Buffer, which is 3× final concentrations) were prepared. Test compounds or DMSO were added to the appropriate well suing D300e digital dispenser. 5 μl/well of Assay Buffer was added to the wells corresponding to the negative control and 5 μl/well of MAT2A was added to all the wells except for those corresponding to the negative control. After incubating the plate at room temperature for 15 minutes, 5 μl/well of the 1 mM L-methionine/1 mM ATP mixture was added to all wells. The plate was centrifuged at 1000 rpm for 1 minute and then incubated at room temperature for 1 hour. 5 μl of the Working Phosphate Sensor Mixture was added to all wells and the plate was centrifuged at 1000 rpm for 1 minute. The plate was read for fluorescence at 450 nm after exciting at 430 nm.
(§6) Percent inhibition was calculated in Chemical and Biological Information System (CBIS), (ChemInnovation Software Inc.). Curves were fitted by CBIS as % inhibition vs. log [compound concentration] using a 4-parameter inhibition model.
(§7) Fit=(A+((B−A)/(1+((C/x)^D))))

[2] = molecular target: T1, Human MAT2A; test: Phosphate Sensor Fluorescence Assay (Biologic Example B); type: biochemical; conditions: MAT2A inhibition, procedure of Biological Example B; 5.8 nM MAT2A, 500 uM L-methionine, 500 uM ATP, 0.01% BGG
Method: as §1, §2
MAT2A: 5.8 nM MAT2A (1-395), Cepter, clone ID 334, lot 00023-148 before the addition of Working Phosphate Sensor Mixture
as §3, §4
as §5, with “(2X” for “(2×”, “3X” for “3×”, “using a Beckman Coulter Echo 550 acoustic liquid handler. 10 μL/well” for “suing D300e digital dispenser. 5 μl/well”, “10 μL/well” for “5 μl/well”, “10 μL” for “5 μl”, “nm on a Tecan Spark microplate reader.” for “nm.”
as §6, §7

Row | SMILES | IC50 [1] | IC50 [2]
1 | Nc1nc(=O)c(-c2ccccc2)c2cc(C(F)(F)F)ccn12 [Compound 1.001, 1-amino-4-phenyl-6-(trifluoromethyl)-3H-pyrido[1,2-c]pyrimidin-3-one] | 10 to 200 nM | 
2 | Cc1ccccc1-c1c(=O)nc(N)n2ccc(C(F)(F)F)cc12 [Compound 1.002, 1-amino-4-(o-tolyl)-6-(trifluoromethyl)-3H-pyrido[1,2-c]pyrimidin-3-one] | 10 to 200 nM | 
3 | Nc1nc(=O)c(-c2ccccc2Cl)c2cc(C(F)(F)F)ccn12 [Compound 1.003, 1-amino-4-(2-chlorophenyl)-6-(trifluoromethyl)-3H-pyrido[1,2-c]pyrimidin-3-one] | 10 to 200 nM | 
4 | COc1cc(C(F)(F)F)cc2c(-c3ccccc3C)c(=O)nc(N)n12 [Compound 1.004, 1-amino-8-methoxy-4-(o-tolyl)-6-(trifluoromethyl)-3H-pyrido[1,2-c]pyrimidin-3-one] | 200 to 500 nM | 
5 | Nc1nc(=O)c(-c2cccnc2)c2cc(C(F)(F)F)ccn12 [Compound 1.005, 1-Amino-4-(pyridin-3-yl)-6-(trifluoromethyl)-3H-pyrido[1,2-c]pyrimidin-3-one] |  | 10 to 200 nM
6 | Cn1nccc1-c1c(=O)nc(N)n2ccc(C(F)(F)F)cc12 [Compound 1.006, 1-Amino-4-(1-methyl-TH-pyrazol-5-yl)-6-(trifluoromethyl)-3H-pyrido[1,2-c]pyrimidin-3-one] |  | 10 to 200 nM
7 | Nc1nc(=O)c(-c2ccccc2)c2cc(Br)ccn12 [Compound 1.007, 1-Amino-6-bromo-4-phenyl-3H-pyrido[1,2-c]pyrimidin-3-one] |  | 10 to 200 nM

Further lines, results first:

Row | IC50 [1] | IC50 [2] | SMILES
8 |  | 10 to 200 nM | Cc1ccccc1-c1c(=O)nc(N)n2ccc(Br)cc12 [Compound 1.008, 1-Amino-6-bromo-4-(o-tolyl)-3H-pyrido[1,2-c]pyrimidin-3-one]
9 |  | 1000 to 10000 nM | CC(=O)Nc1nc(=O)c(-c2ccccc2)c2cc(C(F)(F)F)ccn12 [Compound 1.009, N-(3-oxo-4-phenyl-6-(trifluoromethyl)-3H-pyrido[1,2-c]pyrimidin-1-yl)acetamide]
10 |  | 10 to 200 nM | CCCNc1nc(=O)c(-c2ccccc2)c2cc(C(F)(F)F)ccn12 [Compound 1.010, 4-Phenyl-1-(propylamino)-6-(trifluoromethyl)-3H-pyrido[1,2-c]pyrimidin-3-one]
11 |  | 10 to 200 nM | CNc1nc(=O)c(-c2ccccc2)c2cc(C(F)(F)F)ccn12 [Compound 1.011, 1-(Methylamino)-4-phenyl-6-(trifluoromethyl)-3H-pyrido[1,2-c]pyrimidin-3-one]
